Experimental data taken from article PMC5487351, “Galactosylsphingamides: new α-GalCer analogues to probe the F’-pocket of CD1d” (Scientific Reports, 2017).

Molecular target: T1, mCD1d (mCD1-β2M) (Mus musculus, UniProt P11609)
T1 construct: gene Cd1d1; soluble CD1d ectodomain with beta2-microglobulin, insect cells; glycolipid-loaded; with Beta-2-microglobulin
T1 sequence (P11609 19-297): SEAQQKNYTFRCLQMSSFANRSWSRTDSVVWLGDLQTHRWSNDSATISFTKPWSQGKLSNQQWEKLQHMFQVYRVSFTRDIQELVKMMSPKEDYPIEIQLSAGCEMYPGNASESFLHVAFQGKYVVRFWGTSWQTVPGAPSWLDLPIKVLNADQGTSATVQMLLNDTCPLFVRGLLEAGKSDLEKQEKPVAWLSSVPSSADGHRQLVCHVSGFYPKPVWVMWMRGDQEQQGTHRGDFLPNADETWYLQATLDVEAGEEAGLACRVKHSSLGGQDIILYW
T1 sequence (P01887 21-119 partner): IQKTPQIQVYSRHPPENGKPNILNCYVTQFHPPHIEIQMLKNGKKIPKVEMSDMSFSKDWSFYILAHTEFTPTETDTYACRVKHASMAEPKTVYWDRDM
Assay: X-ray crystal structure, […] Å
Conditions: CD1d binding groove (A' and F' pockets); spacer lipid in A' pocket

With `CCCCCCCC(=O)N[C@@H](CO[C@H]1O[C@H](CO)[C@H](O)[C@H](O)[C@H]1O)[C@H](O)[C@H](O)CCCC(=O)NCCCCCCc1ccccc1` [5d, (5R,6S,7S)-5,6-dihydroxy-8-O-(α-D-galactopyranosyl)-7-octanamido-N-(6-phenylhexyl)octanamide] the “X-ray crystal structure, 1.75 Å” value was “we determined the crystal structure of the CD1d/5d-complex”.
